Molecules are shown by their SMILES. Read-outs that look alike come from different tables or passages of the source.

Experiment [1] deals with human RORγt ligand binding domain (RORγt LBD) (Homo sapiens (Human), UniProt P51449). Nature of the experiment: RORγt ThermoFluor® assay (thermal shift binding). The settings on record: read-out: ThermoFluor® Assay, Kd. The source says:
ThermoFluor® is a fluorescence based assay that estimates ligand binding affinities by measuring the effect of a ligand on protein thermal stability (Pantoliano, M. W., Petrella, E. C., Kwasnoski, J. D., Lobanov, V. S., Myslik, J., Graf, E., Carver, T., Asel, E., Springer, B. A., Lane, P., and Salemme, F. R. (2001) High-density miniaturized thermal shift assays as a general strategy for drug discovery. J Biomol Screen 6, 429-40, and Matulis, D., Kranz, J. K., Salemme, F. R., and Todd, M. J. (2005) Thermodynamic stability of carbonic anhydrase: measurements of binding affinity and stoichiometry using ThermoFluor. Biochemistry 44, 5258-66). This approach is applicable to a wide variety of systems, and rigorous in theoretical interpretation through quantitation of equilibrium binding constants (KD).
The shift in the melting point described as a ΔTm is proportional to the concentration and affinity of the ligand. The compound potency may be compared as a rank order of either ΔTm values at a single compound concentration or in terms of KD values, estimated from concentration response curves.
RORγt ThermoFluor® Assay Construct
For the RORγt construct used in the ThermoFluor® assay, numbering for the nucleotide sequences was based on the reference sequence for human RORγt, transcript variant 2, NCBI Accession: NM_001001523.1 (SEQ ID NO:1). Nucleotides 850-1635 (SEQ ID NO:2) coding for the wild type human RORγt ligand binding domain (RORγt LBD) were cloned into the pHIS1 vector, a modified pET E. coli expression vector (Accelagen, San Diego), containing an in-frame N-terminal His-tag and a TurboTEV protease cleavage site (ENLYFQG, SEQ ID NO:3) upstream of the cloned insert sequence. The amino acid sequence for the RORγt construct used in the Thermofluor® assay is shown as SEQ ID NO:4.
ThermoFluor® experiments were carried out using instruments owned by Janssen Research and Discovery, L.L.C. through its acquisition of 3-Dimensional Pharmaceuticals, Inc. 1,8-ANS (Invitrogen) was used as a fluorescent dye. Protein and compound solutions are dispensed into black 384-well polypropylene PCR microplates (Abgene) and overlayed with silicone oil (1 μL, Fluka, type DC 200) to prevent evaporation.
Bar-coded assay plates are robotically loaded onto a thermostatically controlled PCR-type thermal block and then heated at a typical ramp-rate of 1° C./min for all experiments. Fluorescence was measured by continuous illumination with UV light (Hamamatsu LC6) supplied via fiber optic and filtered through a band-pass filter (380-400 nm; >6 OD cutoff). Fluorescence emission of the entire 384-well plate was detected by measuring light intensity using a CCD camera (Sensys, Roper Scientific) filtered to detect 500±25 nm, resulting in simultaneous and independent readings of all 384 wells. Images were collected at each temperature, and the sum of the pixel intensity in a given area of the assay plate was recorded versus temperature. Reference wells contained RORγt without compounds, and the assay conditions were as follows: • 0.065 mg/mL RORγt • 60 μM 1,8-ANS • 100 mM Hepes, pH 7.0 • 10 mM NaCl • 2.5 mM GSH • 0.002% Tween-20
Project compounds were arranged in a pre-dosed mother plate (Greiner Bio-one) wherein compounds are serially diluted in 100% DMSO by 1:2 from a high concentration of 10 mM over 12 columns within a series (column 12 is a reference well containing DMSO, no compound). The compounds were robotically dispensed directly into assay plates (×=46 nL) using a Hummingbird capillary liquid handling instrument (Digilab). Following compound dispense, protein and dye in buffer was added to achieve the final assay volume of 3 μL, followed by 1 μL of silicone oil.
Background: In DSF a fluorescence change marks the thermal transition of the protein.

The target of experiment [2] is full-length human RORγt (Homo sapiens (Human), UniProt P51449). Nature of the experiment: RORγt (full-length human) reporter assay, Conditions B or C. Type of experiment: cell-based. To be noted: for inhibition at 3 µM: at 3 μM compound concentration; for RORγt (FL) Reporter Assay B or C, % inhibition (value marked *): marked *: footnote not given. The source says:
RORγt (Full-Length Human) Reporter Assay:
Cells used in this assay were transiently co-transfected with three different plasmids, one expressing the GAL4-DNA binding domain (DBD)-RORγt fusion protein under control of a CMV promoter (NH2-Gal4-DBD:RORC-COOH in pCMV-BD, Stratagene #211342), and two reporter plasmids—the firefly luciferase reporter under control of a GAL4 promoter (pFR-Luc 2×GAL4) and Renilla luciferase reporter under control of CMV promoter (pRL-CMV, Promega # E2261). The full-length coding sequence was used for human RORγt, i.e., nucleotides 142-1635 of human RORγt, transcript variant 2, NCBI Accession: NM_001001523.1 (SEQ ID NO:1). HEK293T cells were plated at 35,000 per well in 96-well plate in medium of DMEM with 10% FBS. After 18-22 hours incubation, the transfection was carried out by using a PEI solution with 170.5 ng total DNA/well (50 ng pCMV-BD-ROR plus 20 ng of pFR-Luc reporter and 0.5 ng of pRL-CMV reporter plus 100 ng Carrier DNA (Clontech #630440) for each well). 4-6 hours after transfection, cells were treated with compounds for overnight in the medium with final concentration of FBS 1.3% and DMSO 0.1%. After overnight (16 to 20 hours) incubation, media were removed and cells were lysed with 50 μL Glo Lysis Buffer (Promega) for 10-15 minutes followed by 10 minute incubation with 50 μL Dual Glo reagent (Promega) at room temperature. Firefly luciferase luminescence was measured using a BMG Pherastar plate reader. To each well, 50 μL Stop and Glo reagent was added and incubated for 10 minutes at room temperature. Renilla luminescence was measured using a BMG Pherastar plate reader. To calculate the effect of compounds on RORγt activity, firefly values were normalized against values of DMSO only and values of reference compound at saturating concentration, then further normalized against Renilla signals. IC50s were generated by plotting final Renilla normalized data against compound concentration and percent inhibition was calculated against DMSO control.
Cells used in this assay were transiently co-transfected with three different plasmids, one expressing the GAL4-DNA binding domain (DBD)-RORγt fusion protein under control of a CMV promoter (NH2-Gal4-DBD:RORC-COOH in pCMV-BD, Stratagene #211342), and two reporter plasmids—the firefly luciferase reporter under control of a GAL4 promoter (pFR-Luc 2×GAL4) and Renilla luciferase reporter under control of CMV promoter (pRL-CMV, Promega # E2261). The full-length coding sequence was used for human RORγt, i.e., nucleotides 142-1635 of human RORγt, transcript variant 2, NCBI Accession: NM_001001523.1 (SEQ ID NO:1). HEK293T cells were plated at 8750 cells per well in 384-well plate in medium of DMEM with 10% FBS. After 18-22 hours incubation, the transfection was carried out by using a PEI solution with 42.6 ng total DNA/well (12.5 ng pCMV-BD-ROR plus 5 ng of pFR-Luc reporter and 0.125 ng of pRL-CMV reporter plus 25 ng Carrier DNA (Clontech #630440) for each well). 4-6 hours after transfection, cells were treated with compounds for overnight in the medium with final concentration of FBS 1.3% and DMSO 0.1%. After overnight (16 to 20 hours) incubation, media were removed and cells were lysed with 20 μL Glo Lysis Buffer (Promega) for 10-15 minutes followed by 10 minute incubation with 20 μL Dual Glo reagent (Promega) at room temperature. Firefly luciferase luminescence was measured using a BMG Pherastar plate reader. To each well, 20 μL Stop and Glo reagent was added and incubated for 10 minutes at room temperature. Renilla luminescence was measured using a BMG Pherastar plate reader. To calculate the effect of compounds on RORγt activity, firefly values were normalized against values of DMSO only and values of reference compound at saturating concentration, then further normalized against Renilla signals.
(In general: Reporter assays use an easily measured gene product as a stand-in for the process of interest.)

The mark [3] stands for this setting: read-out: RORγt (FL) Reporter Assay B or C, % inhibition.
[4] abbreviates: read-out: RORγt (FL) Reporter Assay B or C, IC50.
Where [5] appears, read: Conditions B or C, read-out: RORγt (FL) Reporter Assay B or C, IC50.

Chain of full-length human RORγt (P51449 other isoform, or with tags, fused parts or gaps): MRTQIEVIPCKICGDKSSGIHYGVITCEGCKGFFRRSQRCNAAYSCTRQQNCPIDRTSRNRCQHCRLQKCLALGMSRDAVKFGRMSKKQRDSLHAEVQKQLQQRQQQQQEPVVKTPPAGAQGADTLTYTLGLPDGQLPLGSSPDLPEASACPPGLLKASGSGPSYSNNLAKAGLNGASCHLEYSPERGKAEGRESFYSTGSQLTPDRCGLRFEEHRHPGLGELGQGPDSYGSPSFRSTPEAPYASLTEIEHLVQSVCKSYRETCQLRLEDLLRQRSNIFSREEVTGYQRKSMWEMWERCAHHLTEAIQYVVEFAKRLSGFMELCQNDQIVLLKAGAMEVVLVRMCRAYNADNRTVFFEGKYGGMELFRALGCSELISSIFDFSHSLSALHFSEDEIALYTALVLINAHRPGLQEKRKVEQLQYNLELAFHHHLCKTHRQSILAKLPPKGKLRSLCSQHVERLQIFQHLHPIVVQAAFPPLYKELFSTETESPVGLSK
Chain of human RORγt ligand binding domain (RORγt LBD) (P51449 other isoform, or with tags, fused parts or gaps): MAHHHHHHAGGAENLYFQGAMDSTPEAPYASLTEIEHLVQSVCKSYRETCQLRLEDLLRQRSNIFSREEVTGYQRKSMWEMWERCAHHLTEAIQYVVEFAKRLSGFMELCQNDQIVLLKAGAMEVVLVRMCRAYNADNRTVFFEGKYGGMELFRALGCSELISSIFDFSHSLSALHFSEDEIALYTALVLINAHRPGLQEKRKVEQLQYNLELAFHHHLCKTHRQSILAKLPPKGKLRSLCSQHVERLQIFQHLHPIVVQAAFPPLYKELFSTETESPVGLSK

As for `C[C@H](Nc1cc(C(F)F)c(-c2sc(C(=O)N[C@@H]3CC[C@@H]3O)nc2C(=O)N2CCC[C@@H]2C)cn1)C(F)(F)F` (relative stereo) [Example 391, 5-(4-(Difluoromethyl)-6-(((S)-1,1,1-trifluoropropan-2-yl)amino)pyridin-3-yl)-N-((1R*,2S*)-2-hydroxycyclobutyl)-4-((S)-2-methylpyrrolidine-1-carbonyl)thiazole-2-carboxamide], the Kd in experiment [1] was found to be 4.2 nM. Besides, in experiment [2] (setting [3]), the inhibition at 3 µM stood at 106%. Also, the 50% inhibitory concentration (IC50) in experiment [2] (setting [4]) was 35 nM.
On to `C[C@H]1CC(F)(F)CN1C(=O)c1nc(C(=O)NCC(C)(C)O)sc1-c1cnc(NC(C)(C)C2CC2)cc1C(F)(F)F` [Example 107, (S)-5-(6-((2-Cyclopropylpropan-2-yl)amino)-4-(trifluoromethyl)pyridin-3-yl)-4-(4,4-difluoro-2-methylpyrrolidine-1-carbonyl)-N-(2-hydroxy-2-methylpropyl)thiazole-2-carboxamide], for which, in experiment [1], the Kd was determined as 0.26 nM. Besides, the “RORγt (FL) Reporter Assay B or C, % inhibition (value marked *)” value (from here on “RORγt … % inhibition (value marked *)”) in experiment [2] (Conditions B or C) was 111* %. For the same compound, the IC50 in experiment [2] (setting [5]) worked out at 11 nM.
As for `O=C(N[C@H]1COC[C@@H]1O)c1nc(C(=O)N2C3CCC2CC3)c(-c2cnc(N[C@@H](C3CC3)C(F)(F)F)cc2C(F)F)s1` [Example 417, 4-((1s,4s)-7-Azabicyclo[2.2.1]heptane-7-carbonyl)-5-[6-[[(1S)-1-cyclopropyl-2,2,2-trifluoro-ethyl]amino]-4-(difluoromethyl)-3-pyridyl]-N-[(3S,4R)-4-hydroxytetrahydrofuran-3-yl]thiazole-2-carboxamide], the Kd in experiment [1] was found to be 2.4 nM. Moreover, the IC50 in experiment [2] (RORγt (FL) Reporter Assay B or C, IC50) came to 28 nM. For the same compound, in experiment [2] (at 1 μM compound concentration, read-out: RORγt (FL) Reporter Assay B or C, % inhibition), the inhibition at 1 µM stood at 94%.
With `C[C@H](Nc1cc(C(F)F)c(-c2sc(C(=O)NC3CS(=O)(=O)C3)nc2C(=O)N2CC(F)(F)C[C@@H]2C)cn1)C(F)(F)F` [Example 192, 4-((S)-4,4-Difluoro-2-methylpyrrolidine-1-carbonyl)-5-(4-(difluoromethyl)-6-(((S)-1,1,1-trifluoropropan-2-yl)amino)pyridine-3-yl)-N-(1,1-dioxidothietan-3-yl)thiazole-2-carboxamide], in experiment [1], the Kd came to 2.8 nM. Also, the “RORγt … % inhibition (value marked *)” value in experiment [2] (Conditions B or C) is on record as 101* %. The concentration for half-maximal inhibition (IC50) in experiment [2] (setting [5]) is 37 nM.
In the same order, the values of `CC[C@H](Nc1cc(C(F)F)c(-c2sc(C(=O)N[C@@H](C)C(C)(C)O)nc2C(=O)N2C3CCC2CC3)cn1)C(F)(F)F` [Example 248] are 3.4 nM, 102* % and 16 nM.
With `C[C@@H](Nc1cc(C(F)(F)F)c(-c2sc(C(=O)NCC(C)(C)O)nc2C(=O)N2CCC(F)CC2)cn1)C1CC1` [Example 29, (R)-5-(6-((1-Cyclopropylethyl)amino)-4-(trifluoromethyl)pyridin-3-yl)-4-(4-fluoropiperidine-1-carbonyl)-N-(2-hydroxy-2-methylpropyl)thiazole-2-carboxamide], the equilibrium dissociation constant (Kd) in experiment [1] was 22 nM. In experiment [2] (setting [5]), the IC50 was found to be 22 nM. For the same compound, the inhibition at 6 µM in experiment [2] (read-out: RORγt (FL) Reporter Assay B or C, % inhibition @ 6 μM, Conditions B or C, @ 6 μM) was 105%.
Turning to `CC[C@H](Nc1cc(C(F)F)c(-c2sc(C(=O)N3CC4CC(C3)O4)nc2C(=O)N2CCC[C@@H]2C)cn1)C(F)(F)F` [Example 392, [5-[4-(Difluoromethyl)-6-[[(1S)-1-(trifluoromethyl)propyl]amino]-3-pyridyl]-2-(6-oxa-3-azabicyclo[3.1.1]heptane-3-carbonyl)thiazol-4-yl]-[(2S)-2-methylpyrrolidin-1-yl]methanone], the equilibrium dissociation constant (Kd) in experiment [1] stood at 44 nM. Also, in experiment [2] (setting [3]), the inhibition at 3 µM stood at 102%. In addition, in experiment [2] (setting [4]), the half-inhibitory concentration (IC50) is 130 nM.
Take `C[C@@H](Nc1cc(C(F)F)c(-c2sc(C(=O)NCC(C)(C)O)nc2C(=O)N2CCC[C@@H]2C)cn1)C1CC1` [Example 50, 5-(6-(((R)-1-Cyclopropylethyl)amino)-4-(difluoromethyl)pyridin-3-yl)-N-(2-hydroxy-2-methylpropyl)-4-((S)-2-methylpyrrolidine-1-carbonyl)thiazole-2-carboxamide]: in experiment [1], the Kd was 71 nM. Besides, the “RORγt … % inhibition (value marked *)” value in experiment [2] (Conditions B or C) is on record as 100* %. Also, the IC50 in experiment [2] (setting [5]) came out at 58 nM.
`C[C@H]1CCCN1C(=O)c1nc(C(=O)NCC(C)(C)O)sc1-c1cnc(NCC2(C)CC2)cc1C(F)(F)F` [Example 278, N-(2-Hydroxy-2-methyl-propyl)-5-[6-[(1-methylcyclopropyl)methylamino]-4-(trifluoromethyl)-3-pyridyl]-4-[(2S)-2-methylpyrrolidine-1-carbonyl]thiazole-2-carboxamide]: the dissociation constant Kd in experiment [1] came to 7.4 nM. Also, the inhibition at 3 µM in experiment [2] (setting [3]) came to 100%. Moreover, the 50% inhibitory concentration (IC50) in experiment [2] (setting [4]) was determined as 40 nM.

As a reminder, the Kd is the equilibrium constant for the complex coming apart. One may read the inhibition as the drop in the measured response relative to a control, in per cent. The IC50 is the concentration that gives 50% inhibition.

The values above are taken from US10975068B2, “6-aminopyridin-3-yl thiazoles as modulators of RORγT” (Janssen Pharmaceutica NV, priority 2016, dated 2021).
